From patent US20240132492A1, “PYRIDOPYRIMIDINE-BASED COMPOUND AND APPLICATION THEREOF” (JINAN UNIVERSITY, priority 2021, published 2024)

Legend:
Format in all cases: cell-based
HCC827 = experiment: CCK-8 tumor cell proliferation, HCC827; settings: HCC827 cells, 72 hours
Protocol: (§1) Tumor cells (see Table 2 to Table 5) were inoculated in 96-well plates in complete culture medium (2000-3000 cells/well). After overnight incubation, the compounds with different concentrations (0.000508 μM-10 μM) were used to treat the cells separately for 72 hours. CCK-8 (Cell Counting Kit 8, Dojindo Laboratories, Kumamoto, Japan) experiment was used to evaluate cell proliferation. GraphPad Prism 5.0 software (La Jolla, CA) was used to calculate the half-maximal inhibitory concentration (IC50) values by fitting the concentration response curve. Each IC50 value was represented as an average value±SD.

A431 = experiment: CCK-8 tumor cell proliferation, A431; settings: 72 hours
Protocol: as §1

AKT1 = biological target: T1, AKT1 (Homo sapiens, UniProt P31749); experiment: Western Blot, degradation of AKT1 protein in H1975-OR cells; settings: 24 hours, maximum degradation rate; for Dmax at 1 µM: 1000 nM
T1 construct: AKT1, AKT2, and AKT3 proteins in H1975-OR cells; endogenous in cells; host or cells: H1975-OR (osimertinib-resistant H1975)
Outline: (§2)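 H1975-OR cells are Osimertinib-resistant H1975, adapted stepwise from 50 nM to 3 μM Osimertinib. Cells were treated with compound for 24 h, lysed, and immunoblotted with ECL detection. Band grayscale density was quantified.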

H1299 = experiment: CCK-8 tumor cell proliferation, H1299; settings: 72 hours
Protocol: as §1

AKT2 = biological target: T2, AKT2 (Homo sapiens, UniProt P31751); experiment: Western Blot, degradation of AKT2 protein in H1975-OR cells; settings: 24 hours, maximum degradation rate; for Dmax at 1 µM: 1000 nM
T2 construct: AKT1, AKT2, and AKT3 proteins in H1975-OR cells; endogenous in cells; host or cells: H1975-OR (osimertinib-resistant H1975)
Outline: as §2

H1975OR = experiment: CCK-8 tumor cell proliferation, H1975OR; settings: H1975OR cells (Osimertinib resistant), 72 hours
Outline: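 Osimertinib-resistant H1975 cells, selected by raising Osimertinib stepwise from 50 nM to 3 μM, were treated for 72 h with compound at 0.000508–10 μM. Proliferation was read by CCK-8, and IC50 came from fitting the concentration–response curve, given as mean ± SD.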

AKT3 = AKT3 (Homo sapiens, UniProt Q9Y243); experiment: Western Blot, degradation of AKT3 protein in H1975-OR cells; design: endogenous in cells; host or cells: H1975-OR (osimertinib-resistant H1975); settings: 24 hours, maximum degradation rate; for Dmax at 1 µM: 1000 nM
Outline: as §2

PC-9 = experiment: CCK-8 tumor cell proliferation, PC-9; settings: PC-9 cells, 72 hours
Protocol: as §1

H1975 = experiment: CCK-8 tumor cell proliferation, H1975; settings: 72 hours
Outline: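 2000-3000 cells/well, o/n attachment, cpd 0.000508-10 μM × 72 h, CCK-8 readout, curve-fit IC50 (mean±SD).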

[1] = Homo sapiens, A-431, A431 cells
[2] = Homo sapiens, NCI-H1299, H1299 cells
[3] = Homo sapiens, NCI-H1975, H1975 cells

Chain of AKT3 (Q9Y243 whole entry): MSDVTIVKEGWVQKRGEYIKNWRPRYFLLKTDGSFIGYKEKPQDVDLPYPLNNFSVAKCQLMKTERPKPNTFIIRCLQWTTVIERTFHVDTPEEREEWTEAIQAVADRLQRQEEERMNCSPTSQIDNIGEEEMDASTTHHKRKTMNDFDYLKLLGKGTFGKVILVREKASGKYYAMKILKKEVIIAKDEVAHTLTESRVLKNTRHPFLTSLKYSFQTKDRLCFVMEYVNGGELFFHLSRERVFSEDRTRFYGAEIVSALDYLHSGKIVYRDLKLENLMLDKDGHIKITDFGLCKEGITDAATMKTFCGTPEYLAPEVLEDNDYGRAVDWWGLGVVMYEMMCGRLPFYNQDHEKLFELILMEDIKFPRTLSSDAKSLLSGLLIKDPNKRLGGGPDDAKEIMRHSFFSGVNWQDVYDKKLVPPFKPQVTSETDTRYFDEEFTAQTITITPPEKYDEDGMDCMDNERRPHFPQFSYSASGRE
T1 sequence (P31749 whole entry): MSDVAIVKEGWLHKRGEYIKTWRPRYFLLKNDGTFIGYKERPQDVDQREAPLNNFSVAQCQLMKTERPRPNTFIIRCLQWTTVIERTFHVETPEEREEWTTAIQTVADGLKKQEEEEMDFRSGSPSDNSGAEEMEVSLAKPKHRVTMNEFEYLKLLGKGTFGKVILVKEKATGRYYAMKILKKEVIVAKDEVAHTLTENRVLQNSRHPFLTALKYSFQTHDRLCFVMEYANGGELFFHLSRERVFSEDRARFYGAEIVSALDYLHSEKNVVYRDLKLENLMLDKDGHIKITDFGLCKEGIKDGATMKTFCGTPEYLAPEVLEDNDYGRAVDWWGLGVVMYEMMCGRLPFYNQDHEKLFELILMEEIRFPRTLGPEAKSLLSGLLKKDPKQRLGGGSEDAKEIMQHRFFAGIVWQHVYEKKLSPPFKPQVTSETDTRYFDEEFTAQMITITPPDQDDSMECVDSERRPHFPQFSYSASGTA
T2 sequence (P31751 whole entry): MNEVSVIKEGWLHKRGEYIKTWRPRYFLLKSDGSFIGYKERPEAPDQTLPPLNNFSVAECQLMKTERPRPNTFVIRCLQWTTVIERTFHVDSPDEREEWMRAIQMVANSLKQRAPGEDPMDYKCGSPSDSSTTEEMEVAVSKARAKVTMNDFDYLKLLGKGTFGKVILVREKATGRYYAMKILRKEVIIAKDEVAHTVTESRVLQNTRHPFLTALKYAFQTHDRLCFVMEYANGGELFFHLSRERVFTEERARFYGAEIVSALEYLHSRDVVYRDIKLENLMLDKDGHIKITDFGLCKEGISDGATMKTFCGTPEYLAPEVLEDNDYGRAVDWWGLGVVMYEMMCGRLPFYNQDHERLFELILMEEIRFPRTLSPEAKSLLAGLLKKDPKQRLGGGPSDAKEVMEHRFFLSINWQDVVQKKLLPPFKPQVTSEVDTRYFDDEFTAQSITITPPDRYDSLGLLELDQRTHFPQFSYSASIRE

IC50 (HCC827; Homo sapiens) | IC50 (A431; [1]) | Dmax at 1 µM (AKT1) | IC50 (H1299; [2]) | Dmax at 1 µM (AKT2) | IC50 (H1975OR) | Dmax at 1 µM (AKT3) | IC50 (PC-9; Homo sapiens) | IC50 (H1975; [3]) | Compound | IC50 (HCC827) | IC50 (A431; A431 cells) | Dmax (%) at 1000 nM AKT1 (AKT1) | IC50 (H1299; H1299 cells) | Dmax (%) at 1000 nM AKT2 (AKT2) | Dmax (%) at 1000 nM AKT3 (AKT3) | IC50 (PC-9) | IC50 (H1975; H1975 cells)
> 10 µM | > 10 µM | – | > 10 µM | – | > 10 µM | – | > 10 µM | > 10 µM | C=CC(=O)Nc1ccc(-n2c(=O)cc(C)c3cnc(Nc4ccc(N5CCN(CCCCCCCCCCCCNC(=O)CC67CC8CC(CC(C8)C6)C7)CC5)cc4OC)nc32)cc1 [ZX-HYT-14, N-(4-(2-((4-(4-(12-(2-(((3R, 5R, 7R)-adamantan-1-yl)acetylamino)dodecyl)piperazin-1-yl)-2-methoxyphenyl)amino)-5-methyl-7-oxypyridino [2,3-d]pyrimidin-8 (7H)-yl)phenyl)acrylamide] | – | – | – | – | – | – | – | –
10.7 ± 3.88 µM | 2.29 ± 0.0474 µM | – | > 10 µM | – | 0.216 ± 0.032 µM | – | > 10 µM | 6.96 ± 6.04 µM | COc1cc(N2CCN(CCCCCCCCCCCCNC(=O)CC34CC5CC(CC(C5)C3)C4)CC2)ccc1Nc1ncc2c(C)cc(=O)n(-c3cccc(NC(=O)C4CCCCC4)c3)c2n1 [ZX-HYT-13, N-(3-(2-((4-(4-(12-(2-(((3R, 5R, 7R)-adamantan-1-yl)acetylamino)dodecyl)piperazin-1-yl)-2-methoxyphenyl)amino)-5-methyl-7-oxypyridino [2,3-d]pyrimidin-8 (7H)-yl)phenyl)cyclohexane formamide] | – | – | – | – | – | – | – | –
> 10 µM | > 10 µM | – | > 10 µM | – | > 10 µM | – | 4.8 ± 0.501 µM | > 10 µM | COc1cc(N2CCN(CCCCCCCCCCCCNC(=O)CC34CC5CC(CC(C5)C3)C4)CC2)ccc1Nc1ncc2c(C)cc(=O)n(-c3ccc(NC(=O)C4CC4)cc3)c2n1 [ZX-HYT-15, N-(4-(2-((4-(4-(12-(2-(((3R, 5R, 7R)-adamantan-1-yl)acetylamino)dodecyl)piperazin-1-yl)-2-methoxyphenyl)amino)-5-methyl-7-oxypyridino [2,3-d]pyrimidin-8 (7H)-yl)phenyl)cyclopropane formamide] | – | – | – | – | – | – | – | –

More lines, now with the values behind:

Compound | IC50 (HCC827; Homo sapiens) | IC50 (A431; [1]) | Dmax at 1 µM (AKT1) | IC50 (H1299; [2]) | Dmax at 1 µM (AKT2) | IC50 (H1975OR) | Dmax at 1 µM (AKT3) | IC50 (PC-9; Homo sapiens) | IC50 (H1975; [3]) | IC50 (HCC827) | IC50 (A431; A431 cells) | Dmax (%) at 1000 nM AKT1 (AKT1) | IC50 (H1299; H1299 cells) | Dmax (%) at 1000 nM AKT2 (AKT2) | Dmax (%) at 1000 nM AKT3 (AKT3) | IC50 (PC-9) | IC50 (H1975; H1975 cells)
COc1cc(N2CCN(CCCCCCCCCCCCNC(=O)CC34CC5CC(CC(C5)C3)C4)CC2)ccc1Nc1ncc2c(C)cc(=O)n(-c3cccc(NC(=O)C(C)(C)C)c3)c2n1 [ZX-HYT-12] | 0.549 ± 0.247 µM | 0.155 ± 0.0075 µM | 56% | 2.17 ± 0.419 µM | 0% | 0.136 ± 0.0165 µM | 75.4% | 0.466 ± 0.0241 µM | 0.554 ± 0.213 µM | – | – | – | – | – | – | – | –
C=CC(=O)Nc1cccc(-n2c(=O)cc(C)c3cnc(Nc4ccc(N5CCN(CCCCCCCCCCCCNC(=O)CC67CC8CC(CC(C8)C6)C7)CC5)cc4OC)nc32)c1 [ZX-HYT-05, N-(3-(2-((4-(4-(12-(2-(((3R, 5R, 7R)-adamantan-1-yl)acetylamino)dodecyl)piperazin-1-yl)-2-methoxyphenyl)amino)-5-methyl-7-oxypyridino [2,3-d]pyrimidin-8 (7H)-yl)phenyl)acrylamide] | 0.126 ± 0.0216 µM | 0.00806 ± 0.0003 µM | 34.4% | 0.338 ± 0.0855 µM | 29.9% | 0.009 ± 0.002 µM | 71.9% | 0.0083 ± 0.000333 µM | 5.19 ± 4.59 µM | – | – | – | – | – | – | – | –
C=CC(=O)Nc1cccc(-n2c(=O)cc(C)c3cnc(Nc4ccc(N5CCN(C(=O)CCCCCCCCCCCNC(=O)CC67CC8CC(CC(C8)C6)C7)CC5)cc4OC)nc32)c1 [ZX-HYT-07, N-(3-(2-((4-(4-(12-(2-((3R, 5R, 7R)-adamantan-1-yl)acetylamino)dodecanoyl)piperazin-1-yl)-2-methoxyphenyl)amino)-5-methyl-7-oxypyridino [2,3-d]pyrimidin-8 (7H)-yl)phenyl) acrylamide] | – | – | – | – | – | 0.417 ± 0.08 µM | – | – | – | 0.882 ± 0.0945 µM | 0.0839 ± 0.0133 µM | 0% | 1.46 ± 0.428 µM | 0% | 69.2% | 6.79 ± 3.6 µM | 5.07 ± 0.836 µM
